Source: patent US20100184213A1, “APOCRINE CELL LINE” (priority 2007, published 2010)
pIC50: −log10 of the molar value.

Columns and labels:
[1] = tested on: proliferating apocrine cultures (ASG5); assay: Short circuit current (Isc) in Ussing chamber, proliferating apocrine cultures on Transwells; type: cell-based, human; conditions: for Peak agonist Isc response, Control / Peak agonist Isc response, Chloride-free: proliferating (ASG5), Carbachol 20 μM; for Peak agonist Isc response, Control / Peak agonist Isc response after amiloride pre-treatment, Control: chloride-containing buffer; for Peak agonist Isc response, Control / Peak agonist Isc response, Chloride-free / Peak agonist Isc response after amiloride pre-treatment, Control / Peak agonist Isc response after amiloride pre-treatment, Chloride-free: Histamine 200 μM, ATP 100 μM; for Peak agonist Isc response after amiloride pre-treatment, Control / Peak agonist Isc response after amiloride pre-treatment, Chloride-free / ΔIsc (change of resting short circuit current): proliferating apocrine; for Peak agonist Isc response after amiloride pre-treatment, Control / Peak agonist Isc response after amiloride pre-treatment, Chloride-free: Carbachol 200 μM, Isoprenaline ≧1 μM, LBK 170 nM; for ΔIsc (change of resting short circuit current): furosemide 1 mM basolateral
Procedure: (§1) After 13-18 days, confluent ASG5 cultures were passaged onto Transwell collagen-coated permeable supports (0.33 cm^2 area, Costar, cat. no. 3495, High Wycombe, Bucks, UK). This involved incubation in 2% EDTA for 20 minutes, followed by trypsin (0.5%)-EDTA (0.2%) for approximately five minutes. 3×10^5 cells were transferred onto each Transwell supplemented with WEM. The Transwell supports were suspended in 24-well plates in 0.6 ml of the same medium. For primary cultures, only first passage cells were used in experiments. The medium bathing cultures on Transwells was changed every two days.
(§2) Transepithelial resistance (TER) across epithelia on Transwells was monitored using ‘chopstick’ electrodes (WPI, Alresford, Hants, UK) connected to an ohmmeter. The TER was estimated by subtracting the measurement for a moistened filter blank. At peak TER, the Transwell supports were mounted in an Ussing Chamber. Epithelia were bathed in a modified Krebs buffer, oxygenated and maintained at 37° C., pH 7.4, with 95% O2/5% CO2. The buffer consisted of (mM): NaCl, 117; KCl, 4.7; CaCl2, 1.5; MgSO4, 1.2; NaHCO3, 25; and glucose, 11.1. Voltage and current electrodes (calomel and silver/silver chloride respectively, ABB Kent Taylor, Stonehouse, Glos, UK), connected to a voltage/current clamp were extended into the bath via bridges containing agar dissolved in 3 M potassium chloride.
(§3) Voltage electrodes were balanced in the absence of a Transwell and fluid resistance between the voltage electrodes was compensated for by the injection of an arbitrary DC current. After mounting a Transwell the epithelium was short-circuited, the current allowed to stabilise, typically for 15 minutes. Given the rarity of apocrine material, drugs were typically added in succession as disclosed by Brayden et al (1988) J. Physiol, 405: 657-675, Pedersen et al (1992) Exp. Physiol, 77; 863-871, and Shen et al, (1994) Am. J. Physiol, 266: L493-501 and changes in short circuit current (I^sc) recorded. The duration of experiments was typically 15-60 min. TER was estimated using Ohm's Law, routinely by clamping the voltage at ±10 mV and measuring the current required to achieve this. Unless otherwise stated all drugs listed in the legend were added to the basolateral side, except for amiloride that was added to the apical side. Amiloride is an inhibitor of the epithelial Na^+ channel (ENaC) and the Na^+/H^+ exchanger.
(§4) Chloride substitution experiments were carried out in Krebs buffer in which sodium gluconate was substituted for NaCl, potassium gluconate for KCl and CaSO4 for CaCl2. Glucose-free experiments were carried out with 11.1 mM mannitol as a replacement to maintain osmolality. Experiments in which barium was used as an inhibitor of potassium channels were carried out in the absence of sulphate ions, such that MgCl2 replaced MgSO4.

[2] = tested on: primary apocrine cultures; assay: Short circuit current (Isc) in Ussing chamber, primary apocrine cultures on Transwells; type: cell-based, human; conditions: for Peak agonist Isc response, Control / Peak agonist Isc response after amiloride pre-treatment, Control / Peak agonist Isc response, Chloride-free / Peak agonist Isc response after amiloride pre-treatment, Chloride-free / ΔIsc (change of resting short circuit current): primary apocrine; for Peak agonist Isc response, Control / Peak agonist Isc response after amiloride pre-treatment, Control: chloride-containing buffer; for Peak agonist Isc response, Control / Peak agonist Isc response, Chloride-free: Carbachol 20 μM; for Peak agonist Isc response, Control / Peak agonist Isc response after amiloride pre-treatment, Control / Peak agonist Isc response, Chloride-free / Peak agonist Isc response after amiloride pre-treatment, Chloride-free: Histamine 200 μM, ATP 100 μM; for Peak agonist Isc response after amiloride pre-treatment, Control / Peak agonist Isc response after amiloride pre-treatment, Chloride-free: Carbachol 200 μM, Isoprenaline ≧1 μM, LBK 170 nM; for ΔIsc (change of resting short circuit current): amiloride 10 μM apical, furosemide 1 mM basolateral
Procedure: as §1, §2, §3, §4

[3] = tested on: eccrine sweat gland cells; assay: Short circuit current (Isc) in Ussing chamber, primary eccrine sweat gland cells; type: cell-based; conditions: amiloride 10 μM apical
[4] = tested on: primary cultures of apocrine secretory coils; assay: TPA treatment of primary cultures of apocrine secretory coils in MEGM; type: cell-based, human; conditions: TPA 250 nM in MEGM; 3-4 days after addition
Procedure: A proliferating apocrine cell line was derived from primary cultures of apocrine secretory coils. After 7 days culture in MEGM, the potent phorbol ester, TPA (phorbol-12-myristate-13 acetate; ex Calbiochem, Nottingham, UK) was included in the medium at a concentration of 250 nM. […] Commonly, the ester comprises at least aliphatic substituent particularly suitably at the 12 and/or 13 positions, such as a long chain alkyl (C7 to C24) and optionally also a short chain alkyl (C2 to C6).
However, the upper differentiated layers were removed by repeated washing to leave a proliferative monolayer of cells still attached to the flask. Cells of the proliferative layer were passaged into 96 well plates to generate clonal cell lines. Cells were maintained, passaged and continued to grow in MEGM containing TPA for approximately 2 months. After this period cells were cultured in MEGM alone and monitored for continued proliferation. Initially, many subclones continued to grow, but by the end of the next 10 passages, the majority had begun to senesce. One culture, in particular, ASG5, continued to grow and has now been maintained in culture, proliferating over more than 40 passages with no signs of a reduction in growth rate. […] This culture continues to proliferate in the absence of TPA, can survive cryopreservation and is considered to be stable.

Row | Molecule | Peak agonist Isc response, Control [1] [μA cm^−2] | Peak agonist Isc response, Chloride-free ([1]; chloride-free buffer) [μA cm^−2] | Peak agonist Isc response after amiloride pre-treatment, Control [1] [μA cm^−2] | Peak agonist Isc response after amiloride pre-treatment, Chloride-free ([1]; chloride-free buffer) [μA cm^−2] | Peak agonist Isc response, Control [2] [μA cm^−2] | Peak agonist Isc response after amiloride pre-treatment, Control [2] [μA cm^−2] | Peak agonist Isc response, Chloride-free ([2]; chloride-free buffer) [μA cm^−2] | Peak agonist Isc response after amiloride pre-treatment, Chloride-free ([2]; chloride-free buffer) [μA cm^−2] | further results
1 | Nc1ncnc2c1ncn2[C@@H]1O[C@H](COP(=O)(O)OP(=O)(O)OP(=O)(O)O)[C@@H](O)[C@H]1O [ATP, Adenosine triphosphate] | 6.3 ± 1.8 | 4.0 ± 0.5 | 1.8 ± 0.3 | 0.8 ± 0.2 | 7.4 ± 1.8 | 4.9 ± 0.7 | 2.9 ± 0.9 | 4.3 ± 2.4 | 
2 | N=C(N)NC(=O)c1nc(Cl)c(N)nc1N [Amiloride] |  |  |  |  |  |  |  |  | ΔIsc (change of resting short circuit current) [3]: −7.1 ± 0.7 μA cm^−2; pIC50 ([1]; Homo sapiens, apical amiloride, read-out: IC50 for amiloride (dose response curves, resting Isc)): 5.40 to 5.70; carbachol stimulation of Isc after amiloride pre-treatment (FIG. 4A versus FIG. 3) ([1]; amiloride 10 μM apical, CCh 20 μM): reduced; effect of amiloride pre-treatment on peak Isc responses to CCh, His and ATP (FIG. 2) ([1]; amiloride 10 μM apical, CCh 20 μM, His 200 μM, ATP 100 μM basolateral): significantly reduced; reduction of basal Isc under chloride-free conditions ([1]; amiloride 10 μM, chloride-free buffer, proliferating cultures): 2.5 μA cm^−2; reduction of resting Isc ([1]; apically applied amiloride 10 μM, n=20, P<0.001): 4.5±1.0 μA cm^−2; ΔIsc (change of resting short circuit current) ([1]; amiloride 10 μM apical): −4.2 ± 1.0 μA cm^−2; reduction of basal Isc under chloride-free conditions ([2]; amiloride 10 μM, chloride-free buffer, primary cultures): 3.6 μA cm^−2; ΔIsc (change of resting short circuit current) [2]: −6.0 ± 0.9 μA cm^−2
3 | C[N+](C)(C)CCOC(N)=O [Carbachol] | 4.0 ± 0.7 | 3.0 ± 0.8 | 2.4 ± 0.6 | 1.3 ± 0.3 | 3.9 ± 0.7 | 6.3 ± 1.4 | 0.7 ± 0.6 | 1.7 ± 1.2 | 
4 | NS(=O)(=O)c1cc(C(=O)O)c(NCc2ccco2)cc1Cl [Furosemide] |  |  |  |  |  |  |  |  | Inhibition by furosemide of agonist response, ΔIsc ([1]; 90 µM): −1.2 ± 0.3 μA cm^−2; Inhibition by furosemide of agonist response, ΔIsc ([1]; furosemide 90 μM, agonist ATP 100 μM, proliferating): −1.2 ± 0.3 μA cm^−2; Inhibition by furosemide of agonist response, ΔIsc ([1]; furosemide 90 μM, agonist Carbachol ≧20 μM, proliferating): −1.1 ± 0.4 μA cm^−2; Inhibition by furosemide of agonist response, ΔIsc ([1]; furosemide 90 μM, agonist Histamine 200 μM, proliferating): −1.0 ± 0.4 μA cm^−2; magnitude of Isc response to carbachol after furosemide pre-treatment (FIG. 4B versus FIG. 3) ([1]; furosemide 1 mM pre-treatment, CCh 20 μM): reduces the magnitude of response; ΔIsc (change of resting short circuit current) ([1]; amiloride 10 μM apical): −0.8 ± 0.3 μA cm^−2; agonist Isc responses on addition of furosemide after agonist stimulation ([1]; transformed apocrine cultures): rapid reduction in responses; Inhibition by furosemide of agonist response, ΔIsc ([2]; 90 µM): 0.8 ± 0.2 μA cm^−2; Inhibition by furosemide of agonist response, ΔIsc ([2]; furosemide 90 μM, agonist ATP 100 μM, primary): −2.6 ± 0.5 μA cm^−2; Inhibition by furosemide of agonist response, ΔIsc ([2]; furosemide 90 μM, agonist Carbachol ≧20 μM, primary): −2.0 ± 0.5 μA cm^−2; Inhibition by furosemide of agonist response, ΔIsc ([2]; furosemide 90 μM, agonist Histamine 200 μM, primary): −1.3 ± 0.2 μA cm^−2; agonist Isc responses on addition of furosemide after agonist stimulation ([2]; primary apocrine cultures): rapid reduction in responses; ΔIsc (change of resting short circuit current) [2]: −0.5 ± 0.2 μA cm^−2
5 | NCCc1c[nH]cn1 [Histamine] | 4.8 ± 1.3 | 3.3 ± 0.8 | 1.9 ± 0.4 | 1.0 ± 0.2 | 6.4 ± 1.3 | 4.2 ± 0.5 | 1.7 ± 0.5 | 2.4 ± 1.4 | 
6 | CC(C)NCC(O)c1ccc(O)c(O)c1 (stereo not shown) [Isoprenaline] |  |  | 1.8 ± 0.4 | 0.8 ± 0.2 |  | 1.8 ± 0.4 |  | 0.7 ± 0.3 | 
7 | CCCCCCCCCCCCCC(=O)O[C@@H]1[C@@H](C)[C@@]2(O)[C@@H](C=C(CO)C[C@]3(O)C(=O)C(C)=C[C@@H]23)[C@@H]2C(C)(C)[C@]12OC(C)=O [TPA, phorbol-12-myristate-13 acetate] |  |  |  |  |  |  |  |  | effect on culture morphology (multilayering) [4]: induced premature multilayering
8 | L-bradykinin (RPPGFSPFR; Bradykinin; UniProt P01042 381-389, looked up) [LBK, agonist added basolaterally] |  |  | 1.6 ± 0.3 | 0.9 ± 0.3 |  | 2.0 ± 0.5 |  | 0.6 ± 0.4 | 
